{"source": "patent US10004754B2", "about": "“ANP fragment adjuvant therapy to standard of care (SOC) diuretic treatment” (MADELEINE PHARMACEUTICALS PTY LTD, priority 2014, dated 2018)", "origin": "cited, not measured here", "tested_on": "ADCHF patients", "settings": "cited from earlier work", "data": [{"substance": "nesiritide: A recombinant form of human BNP, approved by the FDA for the treatment of ADCHF", "values": [{"measurement": "diuresis in ADCHF patients", "setting": "Gottlieb, 2013", "result": "does not increase diuresis"}, {"measurement": "patient mortality or re-hospitalisation rate", "setting": "O'Conner et al., 2011", "result": "not associated with a change"}]}]}
